Results from US20110124701A1, “USE OF HDAC INHIBITORS FOR THE TREATMENT OF LYMPHOMAS” (NOVARTIS AG, priority 2006, published 2011).

What was measured:
advanced-stage CTCL = assay: Phase I study in patients with advanced-stage CTCL; assay type: in vivo, human
Method: Adult patients with histologically-confirmed, advanced solid tumors or non-Hodgkin's lymphoma including CTCL whose disease has progressed despite standard therapy or for whom no standard therapy exists, will be enrolled onto arms 1-3.
Patients with advanced-stage CTCL were entered into a Phase I study. All patients had progressed following prior systemic therapy. Patients were entered into the DLT, […], dose level 30 mg M,W,F cohort (n=1) or the subsequent MTD, maximum tolerated dose, dose level 20 mg M,W,F weekly (n=8). Compound (III) was continued until disease progression or unacceptable toxicity. The first three patients had 3 mm punch biopsies from CTCL-involved skin lesions performed at 0, 4, 8 and 24 hours after administration, which were subjected to gene expression profiling. Microarray analysis was performed using the Affymetrix U133 plus 2.0 GeneChip that has 47,000 probesets and interrogates 38,500 genes.

HH CTCL cell line = assay: Monolayer growth inhibition assay (MTT/MTS), HH; assay type: cell-based
Method: (§1) The antibiotics penicillin 100 units/mL) and streptomycin (100 μg/mL) were added to prevent bacterial contamination and maintained at 37° C. and 5% CO2 environment in a sterile incubator.
(§2) The MTT is a colorimetric assay to determine the cell proliferation rate. The yellow tetrazolium MTT (3-(4,5-dimethylthiazolyl-2)-2,5-diphenyltetrazolium bromide) is reduced by metabolically active cells, in part by the action of dehydrogenase enzymes, to generate reducing equivalents, such as NADH and NADPH. The resulting intracellular purple formazan can be solubilized and quantified by spectrophotometric means. The signals produced is directly proportional to the cell numbers. Describing the MTT assay in detail, experiments were done using 6-point or 9-point drug titrations in multi-well tissue culture dishes, with outer rows left empty. Cells were suspended in complete media at densities of between 10^3 and 10^4 cell/mL, respectively, and added per well. The appropriate medium (200 μL) was then added. Twenty-four hours later, 10 μL of MTS solution, were added to one plates to determine the activity at the time of compound addition (T0). […] The T0 plate served as a reference for initial activity at the beginning of the experiment.
(§3) Compound addition began 24 hours after seeding, the same time as the T0 determination. […] Each of the six dilutions were added in triplicate and complete medium was added to the empty outer rows without cells. […] The plates were incubated at 37° C. for 72 hours from seeding. The MTS solution was added (as for the T0 plate) and read four hours later. In order to analyze the data, the average value of media alone (background) was subtracted from each experimental well and the triplicate values were averaged for each compound dilution. The following formulas were used to calculate percent growth.
(§4) If X>T0, % Growth=100×((X−T0)/(GC−T0))
(§5) If X<T0, % Growth=100×(X−T0)/T0)
(§6) T0=average value of T0 minus background GC=average value of untreated cells (in triplicate) minus background X=average value of compound treated cells (in triplicate) minus background […]

HuT102 CTCL cell line = assay: Monolayer growth inhibition assay (MTT/MTS), HuT102; assay type: cell-based, human
Method: (§7) Cell lines derived from human CTCL (mycosis fungoides), HUT78, HUT102, HH and MJ were treated with Compound III (LBH589) to assess their sensitivity to the drug. Cells were generally maintained in artificial media, such as Dubelco Modified Eagle Medium (DMEM) or RPMI and supplemented with various levels up to 15% fetal bovine serum. The antibiotics penicillin 100 units/mL) and streptomycin (100 μg/mL) were added to prevent bacterial contamination and maintained at 37° C. and 5% CO2 environment in a sterile incubator.
(§8) The MTT is a colorimetric assay to determine the cell proliferation rate. The yellow tetrazolium MTT (3-(4,5-dimethylthiazolyl-2)-2,5-diphenyltetrazolium bromide) is reduced by metabolically active cells, in part by the action of dehydrogenase enzymes, to generate reducing equivalents, such as NADH and NADPH. The resulting intracellular purple formazan can be solubilized and quantified by spectrophotometric means. The signals produced is directly proportional to the cell numbers. Describing the MTT assay in detail, experiments were done using 6-point or 9-point drug titrations in multi-well tissue culture dishes, with outer rows left empty. Cells were suspended in complete media at densities of between 10^3 and 10^4 cell/mL, respectively, and added per well. The appropriate medium (200 μL) was then added. Twenty-four hours later, 10 μL of MTS solution, were added to one plates to determine the activity at the time of compound addition (T0). This plate was incubated at 37° C. for 4 hours and the optical density was measured on a Molecular Devices Thermomax at 490 nm using the Softmax program. The T0 plate served as a reference for initial activity at the beginning of the experiment.
(§9) Compound addition began 24 hours after seeding, the same time as the T0 determination. […] Each of the six dilutions were added in triplicate and complete medium was added to the empty outer rows without cells. The compounds were added to the plates singly or in combination with Compound III (LBH589). The plates were incubated at 37° C. for 72 hours from seeding. The MTS solution was added (as for the T0 plate) and read four hours later. In order to analyze the data, the average value of media alone (background) was subtracted from each experimental well and the triplicate values were averaged for each compound dilution. The following formulas were used to calculate percent growth.
as §4, §5, §6

[1] = tested on: HH CTCL mouse tumor xenografts; assay: HH CTCL tumor xenograft in mice; assay type: in vivo; settings: 2 weeks
Method: Additionally, Compound III (LBH589) induced the regression of the HH CTCL mouse tumor xenografts in vivo. Mice were implanted with the HH CTCL cell lines and after tumors have grown to 150 mm^3, the mice were separated into four groups each containing eight mice. The groups of mice were dosed intravenously with vehicle, 5 mg/kg, 10 mg/kg, or 15 mg/kg daily.

HuT78 CTCL cell line = assay: Monolayer growth inhibition assay (MTT/MTS), HuT78; assay type: cell-based
Method: as §1, §2, §3, §4, §5, §6

MJ CTCL cell line = assay: Monolayer growth inhibition assay (MTT/MTS), MJ; assay type: cell-based, human
Method: as §7, §8, §9, §4, §5, §6

[2] = of 9 CTCL patients evaluable for response, 20 or 30 mg M,W,F

**Q.** How did the “MTD, maximum tolerated dose, dose level” value (advanced-stage CTCL; M,W,F weekly, CTCL patients) turn out when `Cc1[nH]c2ccccc2c1CCNCc1ccc(/C=C/C(=O)NO)cc1` [Compound III, N-hydroxy-3-[4-[[[2-(2-methyl-1H-indol-3-yl)-ethyl]-amino]methyl]phenyl]-2E-2-propenamide] was run?
**A.** The value was 20 mg.

**Q.** And the “time to progression of a responding patient with CR” value (advanced-stage CTCL; discontinued after 10 doses due to Grade III diarrhea)?
**A.** Its value is 8 m.

**Q.** And the DLT dose level (advanced-stage CTCL; human, in vivo)?
**A.** The DLT dose level was 30 mg.

**Q.** What about the “patients achieving stable disease (SD) with ongoing improvement” value (advanced-stage CTCL; [2]) of the same compound?
**A.** Its value is 1 patients.

**Q.** What about the “patients attaining a complete response (CR)” value (advanced-stage CTCL; [2]) of the same compound?
**A.** Its value is 2 patients.

**Q.** And the “patients attaining a partial response (PR)” value (advanced-stage CTCL; [2])?
**A.** Its value is 2 patients.

**Q.** And the “patients progressed on treatment (PD)” value (advanced-stage CTCL; [2])?
**A.** Its value is 4 patients.

**Q.** What about the “sensitivity (IC50) in words” value (HH CTCL cell line; HH cells) of the same compound?
**A.** The value was “extreme subnanomolar sensitivity”.

**Q.** What about the “LD50 (concentration required to reduce cell number to 50% of the original inoculum)” value (HH CTCL cell line; HH cells, 72 hours) of the same compound?
**A.** Its value is 0.0025 µM.

**Q.** What about the IC50 (HH CTCL cell line; Homo sapiens, HH, 72 h, read-out: IC50 (concentration required to inhibit cell growth by 50%)) of the same compound?
**A.** The IC50 was 0.7 nM.

**Q.** What about the “sensitivity (IC50) in words” value (HuT102 CTCL cell line; HUT102 cells) of the same compound?
**A.** Its value is “extreme subnanomolar sensitivity”.

**Q.** What about the “sensitivity to induced cell death in words” value (HuT102 CTCL cell line; HUT102 cells, HTLV infection) of the same compound?
**A.** Its value is “insensitive”.

**Q.** What about the IC50 (HuT102 CTCL cell line; Homo sapiens, HuT-102, 72 h, read-out: IC50 (concentration required to inhibit cell growth by 50%)) of the same compound?
**A.** Its IC50 is 0.4 nM.

**Q.** What about the “LD50 (concentration required to reduce cell number to 50% of the original inoculum)” value (HuT102 CTCL cell line; HuT102 cells, 72 hours) of the same compound?
**A.** Its value is >10 µM.

**Q.** And the “effect on tumor growth” value ([1]; 5 mg/kg daily iv)?
**A.** Its value is “tumor growth inhibition”.

**Q.** And the “effect on tumor growth” value ([1]; 10 mg/kg daily iv)?
**A.** Its value is “almost complete tumor regression”.

**Q.** What about the “effect on tumor growth” value ([1]; 15 mg/kg daily iv) of the same compound?
**A.** Its value is “almost complete tumor regression”.

**Q.** And the “sensitivity (IC50) in words” value (HuT78 CTCL cell line; HUT78 cells)?
**A.** Its value is “extreme subnanomolar sensitivity”.

**Q.** What about the IC50 (HuT78 CTCL cell line; Homo sapiens, HuT78, 72 h, read-out: IC50 (concentration required to inhibit cell growth by 50%)) of the same compound?
**A.** The IC50 was 0.2 nM.

**Q.** What about the “LD50 (concentration required to reduce cell number to 50% of the original inoculum)” value (HuT78 CTCL cell line; HuT78 cells, 72 hours) of the same compound?
**A.** Its value is 0.003 µM.

**Q.** What about the IC50 (MJ CTCL cell line; Homo sapiens, 72 h, read-out: IC50 (concentration required to inhibit cell growth by 50%)) of the same compound?
**A.** Its IC50 is 0.3 nM.

**Q.** What about the “sensitivity (IC50) in words” value (MJ CTCL cell line; MJ cells) of the same compound?
**A.** The value was “extreme subnanomolar sensitivity”.

**Q.** What about the “LD50 (concentration required to reduce cell number to 50% of the original inoculum)” value (MJ CTCL cell line; MJ cells, 72 hours) of the same compound?
**A.** Its value is >10 µM.

**Q.** And the “sensitivity to induced cell death in words” value (MJ CTCL cell line; MJ cells, HTLV infection)?
**A.** Its value is “insensitive”.
